What was measured:
[1] = target: T1, chitin synthase 2 of Saccharomyces cerevisiae ECY38-38A(pAS6) (Saccharomyces cerevisiae, UniProt P14180); experiment: In vitro enzyme assay for chitin synthase 2 of Saccharomyces cerevisiae (enzyme 2); format: biochemical; details: relative to polyoxin D (50% inhibitory activity = value 5)
T1 construct: made in house; host or cells: Saccharomyces cerevisiae ECY38-38A (chs1-23 chs2::LEU2 cal1/csd2) carrying plasmid pAS6, grown in galactose medium; 130,000 x g membrane pellet
Method in brief: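 Crude membrane chitin synthase 2 came from S. cerevisiae ECY38-38A(pAS6), expressing only CHS2, and was trypsin-activated (15 min, 30 °C) then trypsin-inhibited. The reaction ran in 32 mM Tris-HCl pH 7.5, 2 mM cobalt acetate, 1.1 mM UDP-[14C]-GlcNAc, 90 min at 30 °C. TCA-precipitated product was counted by scintillation; scores 1–8 reflect concentration relative to polyoxin D's 50% inhibition (score 5).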

[2] = target: T2, chitin synthase 1 of Candida albicans chs2 Δ chs 3 Δ (Candida albicans, UniProt P23316); experiment: In vitro enzyme assay for chitin synthase 1 of Candida albicans (enzyme 1); format: biochemical; details: relative to polyoxin D (50% inhibitory activity = value 5)
T2 construct: Crude enzyme was prepared using the Candida albicans chs2 Δ chs 3 Δ mutant; endogenous in cells; host or cells: Candida albicans chs2Δ/chs2Δ chs3Δ/chs3Δ mutant; 130,000 x g membrane pellet
Method in brief: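 Crude membrane enzyme from the C. albicans chs2Δ chs3Δ strain was trypsin-activated for 15 min at 30 °C. Reaction: 32 mM Tris-HCl pH 7.5, 2 mM cobalt acetate, 1.1 mM UDP-[14C]GlcNAc, 90 min at 30 °C; TCA-insoluble radioactivity counted. Scored 1–8 by relative polyoxin D concentration (5 = equal).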

[3] = system: Candida glabrata ATCC 48435; experiment: In vitro antifungal activity (MIC), NCCLS method; format: cell-based
Excerpt: (§1) Candida albicans ATCC 10231, Candida lusitaniae ATCC 42720, Candida krusei ATCC 6258, Candida tropicalis ATCC 13803, Candida glabrata ATCC 48435, Candida parapsilosis ATCC 34136, Cryptococcus neoformans ATCC 36556, Aspergillus fumigatus ATCC 16424, Aspergillus flavus ATCC 64025, Aspergillus terreus ATCC 46941 and Mucor ramosissimus ATCC 90286 strains for the MIC (minimum inhibitory concentration) measurement were obtained from ATCC (American Type Culture Collection) in the U.S. The Candida albicans A207(clinical isolate) strain was used by isolating it from the patients.
(§2) The determination of MIC was performed according to the NCCLS (National Committee for Clinical Laboratory Standard) method. Each test sample solution was diluted two-fold and inoculated with a fungal suspension to reach a final inoculum size of 5×10^2 to 2.5×10^3 cell/mL. The Cryptococcus neoformans strain was cultured in the RPMI 1640 medium for 72 hours. Other strains were cultured for 48 hours.

[4] = system: Mucor ramosissimus ATCC 90286; experiment: In vitro antifungal activity (MIC), NCCLS method; format: cell-based; details: for MIC (minimum inhibitory concentration): 48 hours
Excerpt: as §1, §2

[5] = system: Candida lusitaniae ATCC 42720; experiment: In vitro antifungal activity (MIC), NCCLS method; format: cell-based; details: for MIC (minimum inhibitory concentration): 48 hours
Excerpt: as §1, §2

[6] = system: Cryptococcus neoformans ATCC 36556; experiment: In vitro antifungal activity (MIC), NCCLS method; format: cell-based; details: 72 hours; for MIC (minimum inhibitory concentration): RPMI 1640 medium
Excerpt: as §1, §2

[7] = system: Candida albicans A207 (clinical isolate); experiment: In vitro antifungal activity (MIC), NCCLS method; format: cell-based; details: 48 hours
Excerpt: as §1, §2

Candida krusei ATCC 6258 = experiment: In vitro antifungal activity (MIC), NCCLS method; format: cell-based; details: for MIC (minimum inhibitory concentration): 48 hours
Excerpt: as §1, §2

[8] = system: Candida tropicalis ATCC 13803; experiment: In vitro antifungal activity (MIC), NCCLS method; format: cell-based; details: for MIC (minimum inhibitory concentration): 48 hours
Excerpt: as §1, §2

[9] = system: Aspergillus fumigatus ATCC 16424; experiment: In vitro antifungal activity (MIC), NCCLS method; format: cell-based; details: for MIC (minimum inhibitory concentration): 48 hours
Excerpt: as §1, §2

[10] = system: Candida parapsilosis ATCC 34136; experiment: In vitro antifungal activity (MIC), NCCLS method; format: cell-based
Excerpt: as §1, §2

[11] = system: Aspergillus flavus ATCC 64025; experiment: In vitro antifungal activity (MIC), NCCLS method; format: cell-based; details: for MIC (minimum inhibitory concentration): 48 hours
Excerpt: as §1, §2

[12] = system: Candida albicans ATCC 10231; experiment: In vitro antifungal activity (MIC), NCCLS method; format: cell-based; details: for MIC (minimum inhibitory concentration): 48 hours
Excerpt: as §1, §2

[13] = system: Aspergillus terreus ATCC 46941; experiment: In vitro antifungal activity (MIC), NCCLS method; format: cell-based; details: for MIC (minimum inhibitory concentration): 48 hours
Excerpt: as §1, §2

[14] = Candida glabrata ATCC 48435, 48 hours
[15] = Candida parapsilosis ATCC 34136, 48 hours

T1 sequence (P14180 whole entry): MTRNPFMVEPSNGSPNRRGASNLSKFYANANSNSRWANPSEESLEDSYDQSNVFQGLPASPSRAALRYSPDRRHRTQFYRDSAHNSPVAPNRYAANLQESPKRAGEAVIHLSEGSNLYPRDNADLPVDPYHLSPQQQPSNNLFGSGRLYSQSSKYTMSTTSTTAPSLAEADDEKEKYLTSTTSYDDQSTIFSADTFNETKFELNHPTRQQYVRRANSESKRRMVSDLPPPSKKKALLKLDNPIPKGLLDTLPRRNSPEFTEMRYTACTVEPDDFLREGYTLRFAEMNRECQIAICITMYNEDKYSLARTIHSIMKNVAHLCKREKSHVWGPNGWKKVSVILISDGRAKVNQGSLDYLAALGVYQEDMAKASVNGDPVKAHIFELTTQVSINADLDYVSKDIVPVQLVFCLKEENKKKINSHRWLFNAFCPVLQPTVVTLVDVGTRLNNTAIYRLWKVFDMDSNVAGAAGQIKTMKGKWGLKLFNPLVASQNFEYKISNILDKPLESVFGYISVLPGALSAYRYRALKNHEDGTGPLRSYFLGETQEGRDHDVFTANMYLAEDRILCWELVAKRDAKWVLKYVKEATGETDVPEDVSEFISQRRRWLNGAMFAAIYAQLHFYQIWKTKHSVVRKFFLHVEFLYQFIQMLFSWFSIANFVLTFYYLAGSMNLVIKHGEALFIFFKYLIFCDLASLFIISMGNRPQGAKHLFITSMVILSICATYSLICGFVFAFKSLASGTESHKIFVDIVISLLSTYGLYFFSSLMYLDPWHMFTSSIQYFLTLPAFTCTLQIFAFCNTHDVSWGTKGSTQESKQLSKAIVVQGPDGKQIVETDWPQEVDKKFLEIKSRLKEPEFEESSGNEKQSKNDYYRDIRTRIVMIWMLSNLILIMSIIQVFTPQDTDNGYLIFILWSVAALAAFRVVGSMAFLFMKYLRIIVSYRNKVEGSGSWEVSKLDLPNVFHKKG
T2 sequence (P23316 whole entry, stated change not applied): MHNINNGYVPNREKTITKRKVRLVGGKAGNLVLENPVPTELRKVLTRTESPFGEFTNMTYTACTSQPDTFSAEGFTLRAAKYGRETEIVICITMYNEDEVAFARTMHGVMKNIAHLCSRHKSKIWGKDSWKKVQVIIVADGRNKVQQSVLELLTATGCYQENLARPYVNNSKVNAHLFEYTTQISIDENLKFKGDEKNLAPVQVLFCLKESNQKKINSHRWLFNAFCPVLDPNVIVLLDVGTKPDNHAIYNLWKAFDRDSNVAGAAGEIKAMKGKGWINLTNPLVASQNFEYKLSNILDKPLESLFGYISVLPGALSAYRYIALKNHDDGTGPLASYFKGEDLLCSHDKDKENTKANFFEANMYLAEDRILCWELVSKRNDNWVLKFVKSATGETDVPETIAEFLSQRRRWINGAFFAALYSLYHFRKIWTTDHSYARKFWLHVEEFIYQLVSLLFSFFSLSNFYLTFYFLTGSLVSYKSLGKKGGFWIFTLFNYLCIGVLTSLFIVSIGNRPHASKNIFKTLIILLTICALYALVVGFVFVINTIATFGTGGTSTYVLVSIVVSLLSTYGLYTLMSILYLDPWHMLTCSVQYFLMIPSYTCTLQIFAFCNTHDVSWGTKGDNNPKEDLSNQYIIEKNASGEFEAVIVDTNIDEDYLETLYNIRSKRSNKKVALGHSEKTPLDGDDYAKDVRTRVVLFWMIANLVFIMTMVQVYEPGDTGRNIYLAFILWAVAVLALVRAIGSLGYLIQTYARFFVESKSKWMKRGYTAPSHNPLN

Row | Compound | Relative activity Enzyme 2 [1] | Relative activity Enzyme 1 [2] | MIC (minimum inhibitory concentration) [3, 14] | MIC (minimum inhibitory concentration) [4] | MIC (minimum inhibitory concentration) [5] | MIC (minimum inhibitory concentration) [6] | MIC (minimum inhibitory concentration) [7] | MIC (minimum inhibitory concentration) (Candida krusei ATCC 6258) | MIC (minimum inhibitory concentration) [8] | MIC (minimum inhibitory concentration) [9] | MIC (minimum inhibitory concentration) [10, 15] | MIC (minimum inhibitory concentration) [11] | MIC (minimum inhibitory concentration) [12] | MIC (minimum inhibitory concentration) [13] | other results
1 | 13-(4-Isopropylbenzyl)-9-O-crotylberberrubine bromide [Compound No. 24] | 5 (A compound having the same inhibitory activity as that of polyoxin D at the same concentration was given the value 5) | 2 (Compounds having the inhibitory activity at 2-fold, 4-fold, 8-fold and 16-fold higher concentrations than that of polyoxin D were given the values of 4, 3, 2 and 1, respectively) | 4 µg/mL | 4 µg/mL | 1 µg/mL | 1 µg/mL | 0.5 µg/mL | 1 µg/mL | 0.5 µg/mL | 2 µg/mL | 4 µg/mL | 8 µg/mL | 0.5 µg/mL | 4 µg/mL | –
2 | 13-(4-tert-Butylbenzyl)-9-O-octylberberrubine chloride [Compound No. 42] | 6 (compounds having the inhibitory activity at ½, ¼ and ⅛ lower concentrations than that of polyoxin D were given the values of 6, 7 and 8, respectively) | 3 (Compounds having the inhibitory activity at 2-fold, 4-fold, 8-fold and 16-fold higher concentrations than that of polyoxin D were given the values of 4, 3, 2 and 1, respectively) | 1 µg/mL | 2 µg/mL | 0.5 µg/mL | 0.5 µg/mL | 0.25 µg/mL | 1 µg/mL | 0.125 µg/mL | 2 µg/mL | 1 µg/mL | 4 µg/mL | 0.25 µg/mL | 4 µg/mL | –
3 | COc1ccc2c(Cc3ccc(C(C)(C)C)cc3)c3[n+](cc2c1OC)CCc1cc2c(cc1-3)OCO2.[Cl-] [Comparative compound 1, reference compound] | 3 (Compounds having the inhibitory activity at 2-fold, 4-fold, 8-fold and 16-fold higher concentrations than that of polyoxin D were given the values of 4, 3, 2 and 1, respectively) | 1 (Compounds having the inhibitory activity at 2-fold, 4-fold, 8-fold and 16-fold higher concentrations than that of polyoxin D were given the values of 4, 3, 2 and 1, respectively) | – | – | – | – | – | – | – | – | – | – | – | – | antifungal activities (in words) ([3]; Candida glabrata): no antifungal activities; MIC ([3]; Nakaseomyces glabratus, ATCC48435, Candida glabrata ATCC 48435, 48 hours, read-out: MIC (minimum inhibitory concentration)): > 128 µg/mL; MIC ([4]; ATCC90286, 48 hours, read-out: MIC (minimum inhibitory concentration)): 128 µg/mL; MIC ([5]; Clavispora lusitaniae, ATCC42720, 48 hours, read-out: MIC (minimum inhibitory concentration)): 8 µg/mL; MIC ([6]; ATCC36556, RPMI 1640 medium, read-out: MIC (minimum inhibitory concentration)): 8 µg/mL; MIC ([7]; read-out: MIC (minimum inhibitory concentration)): 8 µg/mL; MIC (Candida krusei ATCC 6258; Pichia kudriavzevii, ATCC6258, 48 hours, read-out: MIC (minimum inhibitory concentration)): 16 µg/mL; MIC ([8]; ATCC13803, 48 hours, read-out: MIC (minimum inhibitory concentration)): 2 µg/mL; MIC ([9]; ATCC16424, 48 hours, read-out: MIC (minimum inhibitory concentration)): 128 µg/mL; antifungal activities (in words) ([10]; Candida parapsilosis): no antifungal activities; MIC ([10]; Lodderomyces parapsilosis, ATCC34136, Candida parapsilosis ATCC 34136, 48 hours, read-out: MIC (minimum inhibitory concentration)): > 128 µg/mL; MIC ([11]; ATCC64025, 48 hours, read-out: MIC (minimum inhibitory concentration)): > 128 µg/mL; MIC ([12]; ATCC10231, 48 hours, read-out: MIC (minimum inhibitory concentration)): 4 µg/mL; MIC ([13]; ATCC46941, 48 hours, read-out: MIC (minimum inhibitory concentration)): > 128 µg/mL
4 | 13-(4-isopropylbenzyl)-9-O-crotylberberrubine chloride [Compound No. 56] | 6 (compounds having the inhibitory activity at ½, ¼ and ⅛ lower concentrations than that of polyoxin D were given the values of 6, 7 and 8, respectively) | 2 (Compounds having the inhibitory activity at 2-fold, 4-fold, 8-fold and 16-fold higher concentrations than that of polyoxin D were given the values of 4, 3, 2 and 1, respectively) | 4 µg/mL | 4 µg/mL | 1 µg/mL | 1 µg/mL | 0.5 µg/mL | 1 µg/mL | 0.5 µg/mL | 2 µg/mL | 4 µg/mL | 8 µg/mL | 0.5 µg/mL | 4 µg/mL | –
5 | 13-(4-tert-Butylbenzyl)-9-O-(4-isopropylbenzyl)berberrubine chloride [Compound No. 48] | 5 (A compound having the same inhibitory activity as that of polyoxin D at the same concentration was given the value 5) | 2 (Compounds having the inhibitory activity at 2-fold, 4-fold, 8-fold and 16-fold higher concentrations than that of polyoxin D were given the values of 4, 3, 2 and 1, respectively) | 2 µg/mL | 8 µg/mL | 4 µg/mL | 2 µg/mL | 1 µg/mL | 2 µg/mL | 1 µg/mL | 4 µg/mL | 8 µg/mL | 8 µg/mL | 1 µg/mL | 8 µg/mL | –
6 | 13-(4-tert-Butylbenzyl)-9-O-(4-tert-butylbenzyl)berberrubine chloride [Compound No. 47] | 5 (A compound having the same inhibitory activity as that of polyoxin D at the same concentration was given the value 5) | 2 (Compounds having the inhibitory activity at 2-fold, 4-fold, 8-fold and 16-fold higher concentrations than that of polyoxin D were given the values of 4, 3, 2 and 1, respectively) | 4 µg/mL | 8 µg/mL | 4 µg/mL | 2 µg/mL | 1 µg/mL | 4 µg/mL | 1 µg/mL | 4 µg/mL | 8 µg/mL | 8 µg/mL | 1 µg/mL | 8 µg/mL | –
